Experimental data reported in patent US20230295201A1 (Gilead Sciences, Inc., priority 2020, published 2023).
pEC50: −log10 of the molar value. Where two headings read alike, the source gives them in different places. Values belong to the compound of their own block, whether it stands above or below them.

Key:
Format in all cases: cell-based
[1] = test system: HRV16; assay: HRV16 HELA EC50 (cytopathic effect in H1-HeLa cells)
Method: H1-HeLa cells, cultured in complete DMEM medium containing 10% heat-inactivated FBS and 1% Penicillin/Streptomycin, were seeded in 96 well plates at 3000 cells/well one day prior to compound dosing and infection. The antiviral activity of each compound was measured in triplicate. Compounds were added directly to the cell cultures in serial 3-fold dilutions using the HP300 digital dispenser (Hewlett Packard, Palo Alto, CA) immediately prior to infection. The plates were transferred to BSL-2 containment and the appropriate dilution of virus stock, previously determined by titration and prepared in cell culture media, was added to test plates containing cells and serially diluted compounds. Each plate included 6 wells of infected untreated cells and 6 wells of uninfected cells that served as 0% and 100% virus inhibition control, respectively. Following the infection, test plates were incubated for 96 h in a tissue culture incubator set to 33° C./5% CO2. Following incubation, the H1-HeLa cells were removed from incubation and allowed to equilibrate to 25° C. Cell viability was determined by removing 100 μL of culture medium and adding 100 μL of Cell-Titer Glo viability reagent. The mixtures were incubated on a shaker for 10 minutes at 25° C., and the luminescence signal was quantified on an Envision luminescence plate reader.

[2] = test system: RSV strain A2; assay: RSV HEp-2 EC50 (infectious cytopathic cell protection assay); settings: HEp-2 cells, RSV A2, 4 days, read-out: RSV HEp-2 EC50
Method: Antiviral activity against RSV is determined using an infectious cytopathic cell protection assay in HEp-2 cells. In this assay, compounds inhibiting viral infection and/or replication produce a cytoprotective effect against the virus-induced cell killing that can be quantified using a cell viability reagent. The techniques used here are novel adaptations of methods described in published literature (Chapman et al., Antimicrob Agents Chemother. 2007, 51(9):3346-53.)
HEp-2 cells are obtained from ATCC (Manassas, VI) and maintained in MEM media supplemented with 10% fetal bovine serum and penicillin/streptomycin. Cells are passaged twice a week and kept at subconfluent stage. Commercial stock of RSV strain A2 (Advanced Biotechnologies, Columbia, MD) is titered before compound testing to determine the appropriate dilution of the virus stock that generates desirable cytopathic effect in HEp-2 cells.
For antiviral tests, HEp-2 cells are grown in large cell culture flasks to near confluency but not fully so. The compounds to be tested are prediluted in DMSO in 384-well compound dilution plates, either in an 8 or 40 sample per plate standardized dose response format. 3-fold serial dilution increments of each test compound are prepared in the plates and test samples are transferred via acoustic transfer apparatus (Echo, Labcyte) at 100 nL per well into cell culture assay 384-well plates. Each compound dilution is transferred in single or quadruplicate samples into dry assay plates, which are stored until assay is ready to go. The positive and negative controls are laid out in opposite on ends of the plate in vertical blocks (1 column).
Subsequently, an infectious mixture is prepared using an appropriate dilution of virus stock previously determined by titration with cells at a density of 50,000/ml and 20 µL/well is added to test plates w/compounds via automation (uFlow, Biotek). Each plate includes negative and positive controls (16 replicates each) to create 0% and 100% virus inhibition standards, respectively. Following the infection with RSV, testing plates are incubated for 4 days in a 37° C. cell culture incubator. After the incubation, a cell viability reagent, Cell TiterGlo (Promega, Madison, WI) is added to the assay plates, which are incubated briefly, and a luminescent readout is measured (Envision, Perkin Elmer) in all the assay plates. The RSV-induced cytopathic effect, percentage inhibition, is determined from the levels of remaining cell viability. […] Various potent anti-RSV tool compounds are used as positive controls for antiviral activity.

[3] = test system: RSV A2; assay: RSV NHBE EC50 (RSV A2 antiviral assay in normal human bronchial epithelial cells); settings: NHBE cells, RSV A2, 4 days, read-out: RSV NHBE EC50
Method: Normal human bronchial epithelial (NHBE) cells were purchased from Lonza (Walkersville, MD, Cat #CC-2540) and cultured in Bronchial Epithelial Growth Media (BEGM) (Lonza, Walkersville, MD, Cat #CC-3170). The cells were passaged 1-2 times per week to maintain <80% confluency. The NHBE cells were discarded after 6 passages in culture.
To conduct the RSV A2 antiviral assay, NHBE cells were plated in 96-well plates at a density of 7,500 cells per well in BEGM and allowed to attach overnight at 37° C. Following attachment, 100 μL of cell culture media was removed and 3-fold serially diluted compound was added using a Hewlett-Packard D300 Digital Dispenser. The final concentration of DMSO was normalized to 0.05%. Following compound addition, the NHBE cells were infected by the addition of 100 μL of RSV A2 at a titer of 1×10^4.5 tissue culture infectious doses/mL in BEGM and then incubated at 37° C. for 4 days. […] The mixtures were incubated for 10 minutes at 25° C., and the luminescence signal was quantified on an Envision luminescence plate reader.

[4] = test system: DENV2 replicon; assay: DENV-2 Huh-7 Rep EC50 (replicon luminescence); settings: read-out: DENV-2 Huh-7 Rep EC50
Method: In 384 well plates (Greiner, Cat #781091), compounds were acoustically transferred at 200 nl per well in a 8 compound (4 replicates) or 40 compound dose response format (3 replicates). For all plates tested, Balapiravir, GS-5734 and NITD008 were included as positive inhibition controls alongside 0% inhibition, DMSO-only negative control wells. Following compound addition, Huh-7 cells containing the DENV2 replicon construct were harvested following standard cell culture procedures and were adjusted to a concentration of 1.25E5 cells/mL in cell culture media composed of cDMEM without genticin. 40 μL of the cell stock was then added to each well for a final cell density of 5,000 cells/well. Cell and compound mixtures were incubated at 37° C./5% CO2 for 48 hours. Prior to harvesting cells, EnduRen Live Cell Substrate (Promega, Cat #E6481) was prepared by suspending 3.4 mg into 100 uL of DMSO to generate a 60 mM stock solution. The stock solution was then diluted 1:200 in pre-warmed cDMEM and 10 uL of this diluted solution was added to each well of the 384 well plates. Plates were then centrifuged at 500 rpm briefly and were placed on a plate shaker for 2 min. Following mixing, plates were incubated at […] for 1.5 hours prior to measuring luminescence on an Envision luminometer.

[5] = 96 h, H1-HeLa cells, 33° C., read-out: HRV16 HELA EC50
[6] = human respiratory syncytial virus, HEp-2, 96 h
[7] = human respiratory syncytial virus, NHBE, 96 h
[8] = human respiratory syncytial virus, 96 h
[9] = H1-HeLa cells, 96 h, 33° C.; read-out: HRV16 HELA EC50
[10] = Dengue virus, DENV2, Huh-7, 48 h, Huh-7 replicon cells, 48 hours

SMILES: C[C@H](NP(=O)(OC[C@@]1(C#N)O[C@@H](c2ccc3c(N)ncnn23)[C@H](O)[C@@H]1O)Oc1ccccc1)C(=O)O[C@@H]1CCOC1 (mixture of isomers) [Example 68, (R)-Tetrahydrofuran-3-yl ((((2R,3S,4R,5S)-5-(4-aminopyrrolo[2,1-f][1,2,4]triazin-7-yl)-2-cyano-3,4-dihydroxytetrahydrofuran-2-yl)methoxy)(phenoxy)phosphoryl)-L-alaninate]
pEC50 [1, 5]: 5.33
pEC50 [2, 6]: 6.61

SMILES: C[C@H](NP(=O)(OC[C@@]1(C#N)O[C@@H](c2ccc3c(N)ncnn23)[C@H](O)[C@@H]1O)Oc1ccccc1)C(=O)O[C@@H]1CCN(C)C1 (mixture of isomers) [Example 61, (R)-1-methylpyrrolidin-3-yl ((((2R,3S,4R,5S)-5-(4-aminopyrrolo[2,1-f][1,2,4]triazin-7-yl)-2-cyano-3,4-dihydroxytetrahydrofuran-2-yl)methoxy)(phenoxy)phosphoryl)-L-alaninate]
pEC50 [3, 7]: ≤ 5.30
pEC50 [1, 5]: 4.64
pEC50 [2, 6]: 5.64

pEC50 [1, 9]: < 4.30
pEC50 [2, 8]: 4.67
SMILES: CSCCOP(=O)(N[C@@H](C)C(=O)OC(C)C)OC[C@@]1(C#N)O[C@@H](c2ccc3c(N)ncnn23)[C@H](O)[C@@H]1O (stereo partly drawn) [Example 40, isopropyl ((((2R,3S,4R,5S)-5-(4-aminopyrrolo[2,1-f][1,2,4]triazin-7-yl)-2-cyano-3,4-dihydroxytetrahydrofuran-2-yl)methoxy)(2-(methylthio)ethoxy)phosphoryl)-L-alaninate]
pEC50 [3, 8]: ≤ 5.30

SMILES: C[C@H](NP(=O)(OC[C@@]1(C#N)O[C@@H](c2ccc3c(N)ncnn23)[C@H](O)[C@@H]1O)Oc1ccccc1)C(=O)OC1CCCCCCC1 (single isomer, unassigned) [Example 172]
pEC50 [4, 10]: 4.50
pEC50 [3, 7]: < 6.29
pEC50 [2]: 5.84

SMILES: C[C@H](NP(=O)(OC[C@@]1(C#N)O[C@@H](c2ccc3c(N)ncnn23)[C@H](O)[C@@H]1O)Oc1ccccc1)C(=O)OC1CCC(F)(F)CC1 (single isomer, unassigned) [Example 175]
pEC50 ([4]; Huh-7 replicon cells, 48 hours): < 4.00
pEC50 [3]: 6.27
pEC50 [2]: 6.10

SMILES: COC(=O)[C@H](C)NP(=O)(OC[C@@]1(C#N)O[C@@H](c2ccc3c(N)ncnn23)[C@H](O)[C@@H]1O)Oc1cccnc1 (stereo partly drawn) [Example 249, methyl ((((2R,3S,4R,5S)-5-(4-aminopyrrolo[2,1-f][1,2,4]triazin-7-yl)-2-cyano-3,4-dihydroxytetrahydrofuran-2-yl)methoxy)(pyridin-3-yloxy)phosphoryl)-L-alaninate]
pEC50 [4, 10]: < 4.30
pEC50 [3, 7]: ≤ 5.30

SMILES: C[C@H](NP(=O)(OC[C@@]1(C#N)O[C@@H](c2ccc3c(N)ncnn23)[C@H](O)[C@@H]1O)Oc1ccccc1)C(=O)OCC12CCN(CC1)CC2 (stereo partly drawn) [Example 213, quinuclidin-4-ylmethyl ((((2R,3S,4R,5S)-5-(4-aminopyrrolo[2,1-f][1,2,4]triazin-7-yl)-2-cyano-3,4-dihydroxytetrahydrofuran-2-yl)methoxy)(phenoxy)phosphoryl)-L-alaninate]
pEC50 [4, 10]: < 4.00
pEC50 [3, 7]: < 5.30
pEC50 [2, 6]: 5.42

SMILES: CC(C)OC(=O)[C@H](C)NP(=O)(OC[C@@]1(C#N)O[C@@H](c2ccc3c(N)ncnn23)[C@H](O)[C@@H]1O)Oc1ccc(C(=O)N(C)C)cc1 (stereo partly drawn) [Example 43, Isopropyl ((((2R,3S,4R,5S)-5-(4-aminopyrrolo[2,1-f][1,2,4]triazin-7-yl)-2-cyano-3,4-dihydroxytetrahydrofuran-2-yl)methoxy)(4-(dimethylcarbamoyl)phenoxy)phosphoryl)-L-alaninate]
pEC50 [4, 10]: < 4.00
pEC50 [3, 7]: ≤ 5.30
pEC50 [2, 6]: 4.26

SMILES: CCC(CC)COC(=O)[C@H](C)NP(=O)(N[C@@H](C)C(=O)OC1CCCCC1)OC[C@@]1(C#N)O[C@@H](c2ccc3c(N)ncnn23)[C@H](O)[C@@H]1O (single isomer, unassigned) [Example 228]
pEC50 [3]: 5.69
pEC50 [1, 9]: 5.33

SMILES: C[C@H](NP(=O)(OC[C@@]1(C#N)O[C@@H](c2ccc3c(N)ncnn23)[C@H](O)[C@@H]1O)Oc1ccccc1)C(=O)OCC1CCCCC1 (stereo partly drawn) [Example 246, cyclohexylmethyl ((((2R,3S,4R,5S)-5-(4-aminopyrrolo[2,1-f][1,2,4]triazin-7-yl)-2-cyano-3,4-dihydroxytetrahydrofuran-2-yl)methoxy)(phenoxy)phosphoryl)-L-alaninate]
pEC50 [4, 10]: 5.29
pEC50 [3, 7]: 7.39
pEC50 [2, 6]: 7.46

pEC50 [2, 8]: 5.15
SMILES: C[C@H](NP(=O)(O)OC[C@@]1(C#N)O[C@@H](c2ccc3c(N)ncnn23)[C@H](O)[C@@H]1O)C(=O)OC1CCCCC1 [Example 202, cyclohexyl ((((2R,3S,4R,5S)-5-(4-aminopyrrolo[2,1-f][1,2,4]triazin-7-yl)-2-cyano-3,4-dihydroxytetrahydrofuran-2-yl)methoxy)(hydroxy)phosphoryl)-L-alaninate]
pEC50 [3, 8]: < 5.53

SMILES: CCC(CC)COC(=O)[C@H](C)NP(=O)(N[C@@H](C)C(=O)OC1CCCCC1)OC[C@@]1(C#N)O[C@@H](c2ccc3c(N)ncnn23)[C@H](O)[C@@H]1O (mixture of isomers) [Example 30, cyclohexyl ((((2R,3S,4R,5S)-5-(4-aminopyrrolo[2,1-f][1,2,4]triazin-7-yl)-2-cyano-3,4-dihydroxytetrahydrofuran-2-yl)methoxy)(((S)-1-(2-ethylbutoxy)-1-oxopropan-2-yl)amino)phosphoryl)-L-alaninate]
pEC50 ([4]; Dengue virus, DENV2, Huh-7, 48 h): 4.22
pEC50 [3, 8]: 7.36
pEC50 [2, 8]: 6.07
